Source: US12296030B2, “Conjugates and their use as imaging agents” (priority 2019, dated 2025)

How the values were obtained:
nodal metastases = assay: FDG-PET in patient 3; format: in vivo, human; conditions: patient 3, 60 min after 256 MBq
[1] = system: quiescent endothelial cells; conditions: in vitro; cited from earlier work
angiogenesis = conditions: in vivo; cited from earlier work
proliferating cells = conditions: cited from earlier work

Compound | FDG-PET finding (nodal metastases) | toxicity to quiescent endothelial cells [1] | effect on angiogenesis (angiogenesis) | toxicity to proliferating cells (proliferating cells)
O=C[C@H](F)[C@@H](O)[C@H](O)[C@H](O)CO [FDG, 2-fluoro-2-deoxyglucose] | two intensely metabolically active nodal metastases | – | – | –
N[C@@H](CCC(=O)N[C@@H](CSCC(=O)Nc1ccc([As](O)O)cc1)C(=O)NCC(=O)O)C(=O)O [GSAO, 4-(N—(S-glutathionylacetyl)amino)phenylarsenous acid] | – | nontoxic | inhibits angiogenesis in vivo | toxic
